In patent US5880156A, “Substituted benzoylguanidines, process for their preparation, their use as a medicament or diagnostic and medicament containing them” (priority 1993, dated 1999):
Structures can show the parent of a compound that is named as a salt.

How the values were obtained:
[1] = target: T1, Na^+ /H^+ exchanger from rabbit erythrocytes (Oryctolagus cuniculus, UniProt P23791); test: Inhibition of the Na^+ /H^+ exchanger from rabbit erythrocytes (Na^+ influx by flame photometry); type: cell-based, rabbit (White New Zealand); details: pH 7.4, 37° C., cholesterol-fed rabbits
T1 construct: determine the Na^+ influx into the erythrocytes via Na^+ /H^+ exchange by flame photometry; endogenous in cells; host or cells: intact erythrocytes (whole blood samples) of cholesterol-fed White New Zealand rabbits
Experimental: White New Zealand rabbits (Ivanovas) received a standard diet containing 2% cholesterol for six weeks in order to activate Na^+ /H^+ exchange and thus to be able to determine the Na^+ influx into the erythrocytes via Na^+ /H^+ exchange by flame photometry. The blood was taken from the auricular arteries and rendered uncoagulable by means of 25 IU of potassium heparin. A part of each sample was used for the duplicate determination of the hematocrit by centrifugation. Aliquots of 100 μl in each case were used to measure the Na^+ starting content of the erythrocytes.
In order to determine the amiloride-sensitive sodium influx, 100 μl of each blood sample were incubated at pH 7.4 and 37° C. in 5 ml in each case of a hyperosmolar salt-sucrose medium (mmol/l: 140 NaCl, 3 KCl, 150 sucrose, 0.1 ouabain, 20 trishydroxymethylaminomethane). The erythrocytes were then washed three times with ice-cold MgCl2 --ouabain solution (mmol/l: […] MgCl2, 0.1 ouabain) and hemolyzed in 2.0 ml of distilled water. The intracellular sodium content was determined by flame photometry.
The net Na^+ influx was calculated from the difference between sodium starting values and the sodium content of the erythrocytes after incubation. The amilorideinhibitable sodium influx ensued from the difference in the sodium content of the erythrocytes after incubation with and without amiloride 3×10^-4 mol/l. The sodium influx was also determined in this manner in the case of the compounds according to the invention.

[2] = system: cardiac arrhythmias; details: in vivo; cited from earlier work

T1 sequence (P23791 whole entry): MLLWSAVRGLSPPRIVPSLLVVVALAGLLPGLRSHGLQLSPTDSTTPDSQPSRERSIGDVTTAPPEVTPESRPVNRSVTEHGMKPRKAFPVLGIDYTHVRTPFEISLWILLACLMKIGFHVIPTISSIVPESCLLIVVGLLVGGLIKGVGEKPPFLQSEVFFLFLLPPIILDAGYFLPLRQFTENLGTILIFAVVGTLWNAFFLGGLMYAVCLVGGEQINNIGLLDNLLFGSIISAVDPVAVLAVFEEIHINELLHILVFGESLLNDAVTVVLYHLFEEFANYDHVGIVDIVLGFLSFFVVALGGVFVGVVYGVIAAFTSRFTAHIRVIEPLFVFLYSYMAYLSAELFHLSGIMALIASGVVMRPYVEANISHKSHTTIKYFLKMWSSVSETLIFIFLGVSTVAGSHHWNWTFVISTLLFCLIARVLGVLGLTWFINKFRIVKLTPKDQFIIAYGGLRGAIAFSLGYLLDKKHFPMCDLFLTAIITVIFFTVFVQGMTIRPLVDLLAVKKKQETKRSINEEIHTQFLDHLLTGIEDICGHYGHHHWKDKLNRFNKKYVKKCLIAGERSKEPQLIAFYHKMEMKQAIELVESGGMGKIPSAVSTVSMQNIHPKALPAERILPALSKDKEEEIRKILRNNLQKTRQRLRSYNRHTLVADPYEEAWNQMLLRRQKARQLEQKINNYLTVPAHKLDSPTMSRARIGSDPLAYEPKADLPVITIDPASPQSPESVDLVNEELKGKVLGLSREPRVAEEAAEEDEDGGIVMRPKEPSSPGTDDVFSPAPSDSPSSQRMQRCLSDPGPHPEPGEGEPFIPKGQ

Compound | IC50 [1] [nM] | side effects accompanying antiarrhythmic effect [2]
CC(=O)c1ccc(Oc2ccc(C(=O)N=C(N)N)cc2S(C)(=O)=O)cc1 [Example 1, 4-(4-Acetylphenoxy)-3-methylsulfonylbenzoylguanidine] | 400 | 
N=C(N)NC(=O)c1nc(Cl)c(N)nc1N [amiloride, Amiloride] |  | hypotensive and saluretic action
CC(O)c1ccc(Oc2ccc(C(=O)N=C(N)N)cc2S(C)(=O)=O)cc1 (racemic) [Example 2, hydrochloride] | 400 | 

More lines, main results first:

IC50 [1] [nM] | Compound | side effects accompanying antiarrhythmic effect [2]
300 to 500 | C[C@@H](O)[C@H](O)c1ccc(Oc2ccc(C(=O)N=C(N)N)cc2S(C)(=O)=O)cc1 [Example 3, 4-[4-(1(R),2(R) -Dihydroxyprop-1-yl)phenoxy]-3-methylsulfonylbenzoylguanidine] | 
100 to 500 | C[C@H](O)[C@@H](O)c1ccc(Oc2ccc(C(=O)N=C(N)N)cc2S(C)(=O)=O)cc1 [Example 4, 4-[4-(1(S),2(S)-Dihydroxyprop-1-yl)phenoxy]-3-methylsulfonylbenzoylguanidin] | 
